{"source": "patent US12569508B2", "about": "“Antimicrobial compositions and methods of use” (priority 2020, dated 2026)", "tested_on": "CFBE41o−", "type": "cell-based, human", "method": "Cell viability was assessed through taking the contents of the basolateral compartment media and reacting it with a Cytotoxicity Detection Kit (LDH) (Roche) to determine the amount of LDH released. 200 μL of the basolateral media was taken and centrifuged at 300×g for 10 mins. 100 μL of the supernatant was mixed with 100 μL of the reaction solution, as per manufacturer's instructions. LDH release was measured after 5-minute incubation at room temperature using a plate reader at an absorbance of 492 nm.", "data": [{"smiles": "NC[C@H]1O[C@H](O[C@H]2[C@H](O)[C@@H](O[C@H]3O[C@H](CO)[C@@H](O)[C@H](N)[C@H]3O)[C@H](N)C[C@@H]2N)[C@H](N)C[C@@H]1O", "note": "[unformulated TOB, tobramycin]", "values": [{"measurement": "epithelium cell monolayer viability", "value": "maintained the epithelium cell monolayer viability"}, {"measurement": "cell viability of the epithelium monolayer", "setting": "human, 24 h", "value": "above 80%"}]}]}
